Experimental data published in ChEMBL document CHEMBL5537123, “Discovery of triazole tethered thymol/carvacrol-coumarin hybrids as new class of α-glucosidase inhibitors with potent in vivo antihyperglycemic activities” (Eur J Med Chem, 2024).
Activity calls are given as the source filed them. The calls are words filed in the database; no cut-off is given here.

How the values were obtained:
Alpha-glucosidase [1] = target: T1, Alpha-glucosidase (Saccharomyces cerevisiae S288c, UniProt P53341+P38158+P07265); test: Inhibition of Saccharomyces cerevisiae alpha-glucosidase using pNPG as substrate preincubated with compound for 20 mins followed by substrate addition measured after 1 hrs by absorbance based analysis; type: protein assay
Alpha-amylase = target: T2, Alpha-amylase (Sus scrofa domesticus, UniProt Q7M328); test: Inhibition of porcine pancreatic alpha-amylase using pNPG as substrate preincubated with compound for 20 mins followed by substrate addition measured after 1 hrs by absorbance based analysis
T2 sequence (Q7M328 whole entry): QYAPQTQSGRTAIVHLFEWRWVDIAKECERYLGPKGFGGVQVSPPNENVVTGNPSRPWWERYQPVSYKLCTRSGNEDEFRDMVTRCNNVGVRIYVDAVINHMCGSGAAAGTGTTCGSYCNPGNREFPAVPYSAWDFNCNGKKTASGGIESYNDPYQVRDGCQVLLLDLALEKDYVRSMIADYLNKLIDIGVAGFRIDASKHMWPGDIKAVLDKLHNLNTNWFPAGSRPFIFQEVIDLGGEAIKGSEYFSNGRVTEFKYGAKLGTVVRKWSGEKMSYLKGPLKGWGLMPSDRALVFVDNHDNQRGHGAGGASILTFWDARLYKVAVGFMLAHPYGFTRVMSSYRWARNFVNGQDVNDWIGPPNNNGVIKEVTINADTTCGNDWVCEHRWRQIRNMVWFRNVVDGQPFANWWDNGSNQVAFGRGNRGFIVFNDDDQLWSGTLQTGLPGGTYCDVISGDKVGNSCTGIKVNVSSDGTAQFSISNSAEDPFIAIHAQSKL

[2] = Cytotoxicity against mouse L929 cells assessed reduction in cell viability incubated for 24 hrs by MTT assay; type: toxicity, cell-based
[3] = Selectivity index, ratio of IC50 for inhibition of porcine pancreatic alpha-amylase using pNPG as substrate to IC50 for inhibition of Saccharomyces cerevisiae alpha-glucosidase using pNPG as substrate
Alpha-glucosidase [4] = target: T1, Alpha-glucosidase; test: Mixed type inhibition of Saccharomyces cerevisiae alpha-glucosidase using pNPG as substrate assessed as inhibition constant preincubated for 20 mins followed by substrate addition measured after 1 hrs by Lineweaver-burk plot analysis; type: protein assay
[5] = Acute toxicity in Wistar rat assessed as change in salivation at 300 mg/kg, po measured for 14 days; type: organism-based; details: in vivo, 336 h, time 14 day
[6] = Acute toxicity in Wistar rat assessed as change in salivation at 50 mg/kg, po measured for 14 days; type: organism-based; details: in vivo, 336 h, time 14 day
[7] = Acute toxicity in Wistar rat assessed as change in salivation at 5 mg/kg, po measured for 14 days; type: organism-based; details: in vivo, 336 h, time 14 day
[8] = Acute toxicity in Wistar rat assessed as lethal dose measured for 14 days; details: in vivo, time 14 day
[9] = Acute toxicity in Wistar rat assessed as mortality rate at 300 mg/kg, po measured for 14 days; type: organism-based; details: in vivo, time 14 day, read-out: Activity
Rattus norvegicus [10] = test: Hypoglycemic activity in streptozotocin-induced diabetic Wistar rat model assessed as decrease in blood glucose level at 5 to 20 mg/kg, po administered for 5 days and measured after 30 mins by glucometer analysis; type: functional, organism-based; details: dose 5-20 mg/kg, time 7230.0 min
Rattus norvegicus [11] = test: Hypoglycemic activity in streptozotocin-induced diabetic Wistar rat model assessed as decrease in blood glucose level at 5 mg/kg, po administered for 5 days and measured after 1 hr by maltose loading test relative to control; type: functional; set-up: scale not given: the % may be the effect or the level left; details: time 121 hrs
Rattus norvegicus [12] = test: Hypoglycemic activity in streptozotocin-induced diabetic Wistar rat model assessed as decrease in blood glucose level at 10 mg/kg, po administered for 5 days and measured after 1 hr by maltose loading test relative to control; type: functional; set-up: scale not given: the % may be the effect or the level left; details: time 121 hrs
Rattus norvegicus [13] = test: Hypoglycemic activity in streptozotocin-induced diabetic Wistar rat model assessed as decrease in blood glucose level at 20 mg/kg, po administered for 5 days and measured after 1 hr by maltose loading test relative to control; type: functional; set-up: scale not given: the % may be the effect or the level left; details: time 121 hrs
Rattus norvegicus [14] = test: Hypoglycemic activity in streptozotocin-induced diabetic Wistar rat model assessed as decrease in blood glucose level at 5 mg/kg, po administered for 5 days and measured after 1 hr by sucrose loading test relative to control; type: functional; set-up: scale not given: the % may be the effect or the level left; details: time 121 hrs
Rattus norvegicus [15] = test: Hypoglycemic activity in streptozotocin-induced diabetic Wistar rat model assessed as decrease in blood glucose level at 10 mg/kg, po administered for 5 days and measured after 1 hr by sucrose loading test relative to control; type: functional; set-up: scale not given: the % may be the effect or the level left; details: time 121 hrs
Rattus norvegicus [16] = test: Hypoglycemic activity in streptozotocin-induced diabetic Wistar rat model assessed as decrease in blood glucose level at 20 mg/kg, po administered for 5 days and measured after 1 hr by sucrose loading test relative to control; type: functional; set-up: scale not given: the % may be the effect or the level left; details: time 121 hrs
Rattus norvegicus [17] = test: Hypoglycemic activity in streptozotocin-induced diabetic Wistar rat model assessed as reduction in fasting blood glucose level at 10 mg/kg, po measured every 7 days for 28 days relative to control; type: functional; set-up: scale not given: the % may be the effect or the level left; details: time 7 day
Rattus norvegicus [18] = test: Hypoglycemic activity in streptozotocin-induced diabetic Wistar rat model assessed as reduction in fasting blood glucose level at 20 mg/kg, po measured every 7 days for 28 days relative to control; type: functional; set-up: scale not given: the % may be the effect or the level left; details: time 7 day
[19] = Toxicity in Wistar rat assessed as effect on body weight at 20 mg/kg, po measured for 28 days; type: organism-based; details: in vivo, 672 h, time 28 day
[20] = Inhibition of alpha-glucosidase (unknown origin); set-up: species or system Homo sapiens
Origanum vulgare = test: Inhibition of Origanum vulgare alpha-glucosidase at 18 microg/ml relative to control; details: dose 18.0 µg/ml

| IC50 (Alpha-glucosidase [1]) | IC50 (Alpha-amylase) | Compound | other results |
| --- | --- | --- | --- |
| 72.91 µM | > 100 µM | Cc1ccc(C(C)C)c(OCc2cn(CCCOc3ccc4ccc(=O)oc4c3)nn2)c1 | – |
| 56.41 µM | > 100 µM | Cc1ccc(C(C)C)c(OCc2cn(CCOc3ccc4ccc(=O)oc4c3)nn2)c1 | – |
| – | – | Cc1ccc(CNC(=O)Cn2cc(COc3cc(=O)oc4ccccc34)nn2)cc1 | IC50 [20]: 3.5 µM |
| 61.24 µM | > 100 µM | Cc1ccc(C(C)C)c(OCc2cn(CCOc3cc(=O)oc4ccccc34)nn2)c1 | – |
| 78.69 µM | > 100 µM | Cc1ccc(C(C)C)cc1OCc1cn(CCOc2cc(=O)oc3ccccc23)nn1 | – |
| – | – | O=C(Cn1cc(COc2ccc3ccc(=O)oc3c2)nn1)NCc1cccc(Br)c1 | IC50 [20]: 0.543 µM |
| – | – | Cc1ccc(C(C)C)cc1OS(=O)(=O)c1ccc(F)cc1 | inhibition (Origanum vulgare): 57.7%; IC50 [20]: 2.56 µM |
| 7.53 µM | 57.3 µM | Cc1ccc(C(C)C)c(OCc2cn(CCCCCOc3cc(=O)oc4ccccc34)nn2)c1 | IC50 at 24 h [2]: > 100 µM; Ratio IC50 [3]: 7.61 |
| 26.48 µM | > 100 µM | Cc1ccc(C(C)C)cc1OCc1cn(CCCCOc2cc(=O)oc3ccccc23)nn1 | – |
| 9.23 µM | 69.3 µM | Cc1ccc(C(C)C)cc1OCc1cn(CCCCCCOc2cc(=O)oc3ccccc23)nn1 | IC50 at 24 h [2]: > 100 µM; Ratio IC50 [3]: 7.51 |
| 64.21 µM | > 100 µM | Cc1ccc(C(C)C)cc1OCc1cn(CCOc2ccc3ccc(=O)oc3c2)nn1 | – |
| – | – | C[C@H]1O[C@H](O[C@H]2[C@H](O)[C@@H](O)[C@@H](O[C@H]3[C@H](O)[C@@H](O)C(O)O[C@@H]3CO)O[C@@H]2CO)[C@H](O)[C@@H](O)[C@@H]1N[C@H]1C=C(CO)[C@@H](O)[C@H](O)[C@H]1O (some centres not stated) [ACARBOSE] | Activity (Rattus norvegicus [12]): 53.01%; Activity (Rattus norvegicus [15]): 56.31%; Activity (Rattus norvegicus [17]): 25.86% |
| > 100 µM | > 100 µM | Cc1ccc(C(C)C)cc1OCc1cn(CCCOc2ccc3ccc(=O)oc3c2)nn1 | – |
| 68.51 µM | > 100 µM | Cc1ccc(C(C)C)cc1OCc1cn(CCCOc2cc(=O)oc3ccccc23)nn1 | – |
| > 100 µM | > 100 µM | Cc1ccc(C(C)C)cc1OCc1cn(CCCCOc2ccc3ccc(=O)oc3c2)nn1 | – |
| 16.32 µM | > 100 µM | Cc1ccc(C(C)C)c(OCc2cn(CCCCCCOc3cc(=O)oc4ccccc34)nn2)c1 | – |
| > 100 µM | > 100 µM | Cc1ccc(C(C)C)c(OCc2cn(CCCCOc3ccc4ccc(=O)oc4c3)nn2)c1 | – |
| > 100 µM | > 100 µM | Cc1ccc(C(C)C)cc1OCc1cn(CCCCCOc2ccc3ccc(=O)oc3c2)nn1 | – |
| > 100 µM | > 100 µM | Cc1ccc(C(C)C)c(OCc2cn(CCCCCCOc3ccc4ccc(=O)oc4c3)nn2)c1 | – |
| > 100 µM | > 100 µM | Cc1ccc(C(C)C)cc1OCc1cn(CCCCCCOc2ccc3ccc(=O)oc3c2)nn1 | – |
| 25.36 µM | 77.5 µM | Cc1ccc(C(C)C)c(OCc2cn(CCCCOc3cc(=O)oc4ccccc34)nn2)c1 | Ratio IC50 [3]: 3.06 |
| > 100 µM | > 100 µM | Cc1ccc(C(C)C)c(OCc2cn(CCCCCOc3ccc4ccc(=O)oc4c3)nn2)c1 | – |
| – | – | Cc1ccc(C(C)C)c(OS(=O)(=O)c2ccc(F)cc2)c1 | inhibition (Origanum vulgare): 57.7%; IC50 [20]: 2.3 µM |
| 37.59 µM | > 100 µM | Cc1ccc(C(C)C)c(OCc2cn(CCCOc3cc(=O)oc4ccccc34)nn2)c1 | – |

| Compound | IC50 (Alpha-glucosidase [1]) | IC50 (Alpha-amylase) | other results |
| --- | --- | --- | --- |
| Cc1ccc(C(C)C)cc1OCc1cn(CCCCCOc2cc(=O)oc3ccccc23)nn1 | 4.32 µM | 37.4 µM | IC50 at 24 h [2]: > 100 µM; Ratio IC50 [3]: 8.65; Ki (Alpha-glucosidase [4]): 0.832 µM; Activity [5]: Non-Toxic; Activity [6]: Non-Toxic; Activity [7]: Non-Toxic; LD50 at 336 h [8]: 300 mg/kg; mortality at 336 h [9]: 67%; Activity (Rattus norvegicus [10]): Active; Activity (Rattus norvegicus [11]): 28.91%; Activity (Rattus norvegicus [12]): 62.65%; Activity (Rattus norvegicus [13]): 70.12%; Activity (Rattus norvegicus [14]): 25.24%; Activity (Rattus norvegicus [15]): 59.65%; Activity (Rattus norvegicus [16]): 60.23%; Activity (Rattus norvegicus [17]): 54.69%; Activity (Rattus norvegicus [18]): 62.23%; Activity [19]: Non-Toxic |
